Results on three molecules are retold here after patent US20150374784A1, “COMPOSITIONS AND METHODS FOR REDUCING GERM CELL DEATH” (Los Angeles Biomedical Research Institute at Harbor-UCLA …, priority 2014, published 2015).

In series [1] the test system is male germ cells. In words: TMZ-induced male germ cell apoptosis in SCID mice (TUNEL, Apoptosis Index). To be noted: 24 hours after last injection; TMZ 50 mg/Kg BW/day X 5 days; HNG 5 mg/Kg BW/day. In kind it is in vivo, mouse. How it is done:
Onco-infertility is a major concern of cancer survivors. In this study, it was investigated whether HNG will prevent chemotherapy (Temozolomide, TMZ, an alkylating agent used clinically to treat brain tumors) induced male germ cell apoptosis in SCID mice bearing subcutaneous implants of human medulloblastoma. DAOY human pediatric medulloblastoma cells ([…] cells/animal) were injected subcutaneously into the right flank of 7-week old male SCID mice. After 3 weeks to allow tumor growth, each group of mice (n=4 to 5/group) received one of the following treatments: 1) vehicle (control); 2) HNG intra-peritoneal (IP) injection (HNG, 5 mg/Kg BW/day, 3 days pretreatment+5 days treatment); 3) TMZ IP injection (TMZ, 50 mg/Kg BW/day X 5 days); 4) TMZ and HNG IP injections (TMZ+HNG). Mice were sacrificed 24 hours after the last injection, subcutaneous tumors were dissected and weighed (FIG. 26) and male germ cell apoptosis was assessed by TUNEL staining and quantified (Apoptosis Index, AI, number of apoptotic germ cell/Sertoli cell, FIG. 27). […] HNG ameliorated TMZ-induced germ cell apoptosis without affecting the chemotherapeutic effect on transplanted medulloblastoma tumor in an immunocompromised mouse model.

Series [2] relates to Leydig cells. Briefly: Testosterone of cultured Leydig cells treated with ketoconazole. In kind it is cell-based, rat. To be noted: KTZ 10 mcg/ml, 4 hours, 34° C. How it is done: Leydig cells were isolated based on a previously described procedure (Gao, et al., 1996; Klinefelter, et al., 1987; Salva, et al., 2001). Briefly, the testes were decapsulated, and then dissociated with collagenase, dispase, DNase and shaking for 15 min at 34° C. The seminiferous tubules were removed by filtration through 40 μm nylon mesh (BD Falcon, Franklin Lakes, N.J.). Leydig cells were then harvested after centrifugation and purified using a Percoll gradient (GE Healthcare, Uppsala, Sweden) and centrifugation (60 minutes at 20,000 g at 4° C.). Enriched Leydig cells were harvested at densities between 1.065 (red) and 1.075 (blue) g/cm^3 from the percoll gradient. These Leydig cells were washed by diluting the percoll and excluding residual germ cells and other cells using a BSA density gradient with centrifugation. The purity of the Leydig cells was >90%, as determined by histochemical staining for 3β-hydroxysteroid dehydrogenase. The cell viability, as assessed by trypan blue exclusion, was greater than 90%. […]
Testosterone concentrations in plasma, testes, and culture medium were measured by a previously described radioimmunoassay (Lue, et al., 2010) with a minimal detection limit of 0.1 ng/ml. […]

Series [3] relates to B16 melanoma cells. Format: cell-based. The text has this: Furthermore, the autophagy induction of humanin may be related to its apparent effects of enhancing longevity observed in other systems.
A short description of series [4]: in vivo. The following applies: male, C57BL/6J, mouse, sc, 10 mg/kg BW. How it is done:
The objective of this study was to investigate whether HNG has protective effect on sperm output after multiple doses of CP in mice. Thirty adult male mice (C57BL/6J) were randomized into 4 groups: 1) 5 as control; 2) 5 received daily subcutaneously injection of HNG (10 mg/kg BW); 3) 10 were given 6 doses of CP (150 mg/kg BW) intraperitoneally at 5-day intervals; 4) 10 received both HNG and CP. All mice were killed at 28 days. Plasma HNG and IGF-1 levels were measured by ELISAs. The cauda epididymal sperm count was performed using a hemocytometer.

Each structure is given as a SMILES string. Peptide text beside a SMILES is read from it.

With `Cn1nnc2c(C(N)=O)ncn2c1=O` [TMZ, Temozolomide], in series [1], the “Apoptosis Index (AI), apoptotic germ cell/Sertoli cell, early+late stages” value amounted to 0.116±0.009 and the “Apoptosis Index (AI), apoptotic germ cell/Sertoli cell, middle stages” value was 0.058±0.006.

Consider `CC(=O)N1CCN(c2ccc(OCC3COC(Cn4ccnc4)(c4ccc(Cl)cc4Cl)O3)cc2)CC1` (centres unmarked) [KTZ, ketoconazole, reference compound], for which the “testosterone levels of cultured Leydig cells” value in series [2] is given as “lowered the testosterone levels significantly”.

With `CC[C@H](C)[C@H](NC(=O)[C@H](CCC(=O)O)NC(=O)CNC(=O)[C@@H](NC(=O)[C@H](CC(C)C)NC(=O)[C@H](CC(C)C)NC(=O)[C@H](CC(C)C)NC(=O)[C@H](CC(C)C)NC(=O)[C@H](CS)NC(=O)[C@H](CO)NC(=O)[C@H](Cc1ccccc1)NC(=O)CNC(=O)[C@H](CCCNC(=N)N)NC(=O)[C@@H]1CCCN1C(=O)[C@H](C)NC(=O)[C@@H](N)CCSC)[C@@H](C)O)C(=O)N[C@@H](CC(=O)O)C(=O)N[C@@H](CC(C)C)C(=O)N1CCC[C@H]1C(=O)N[C@H](C(=O)N[C@@H](CCCCN)C(=O)N[C@@H](CCCNC(=N)N)C(=O)N[C@@H](CCCNC(=N)N)C(=O)N[C@@H](C)C(=O)O)C(C)C` [HNG] (H-MAPRGFSCLLLLTGEIDLPVKRRA-OH; N-terminus and C-terminus assumed), the “cytotoxicity of combined treatment versus doxorubicin treatment alone” value in series [3] is listed as “additive effect on the cytotoxicity”. For the same molecule, in series [4], the level at 672 h was 80.8 ± 7.8 ng/mL.
